Data from publication PMC10126150 (2023).

What was measured:
Experiment in all cases: Cy3/quencher fluorescence plate reader
Conditions in all cases: 120 mM Na+, 5 mM K+, 1 mM Mg2+, 1 mM Ca2+; 20 mM Tris-HCl, 25 °C; affinity similar to glucose
[1] = test system: glu-1 ADS construct (DNA, aptamer, boronic acid-modified U (Z, T in the source) at 5,7,8,12,15,19,24,26 of strand 1 (MS of Bio-NNGmin: seven of eight coupled)) CCCGTGTTAGATAGTAAGTGCAATCTCGGCTTTCTGTCTCTTATACACATCTGACGCTGCCGACGA/TCGTCGGCAGCGTCAGATGTGTATAAGAGACAGTTTTTTTTTTTTTTTTTTTTTTTTTTAGGGCAGGCTC
[2] = test system: glu-3 ADS construct (DNA, aptamer, boronic acid-modified U (Z, T in the source) at 5,7,8,12,15,19,24,26 of strand 1 (MS of Bio-NNGmin: seven of eight coupled)) CCCGTGTTAGATAGTAAGTGCAATCTCGGCTTTCTGTCTCTTATACACATCTGACGCTGCCGACGA/TCGTCGGCAGCGTCAGATGTGTATAAGAGACAGTTTTTTTTTTTTTTTTTTTTTTTTTTACCAGGAGCTC
[3] = test system: glu-4 ADS construct (DNA, aptamer, boronic acid-modified U (Z, T in the source) at 5,7,8,12,15,19,24,26 of strand 1 (MS of Bio-NNGmin: seven of eight coupled)) CCCGTGTTAGATAGTAAGTGCAATCTCGGCTTTCTGTCTCTTATACACATCTGACGCTGCCGACGA/TCGTCGGCAGCGTCAGATGTGTATAAGAGACAGTTTTTTTTTTTTTTTTTTTTTTTTTACCAGGAGCTTC
[4] = test system: glu-2 ADS construct (DNA, aptamer, boronic acid-modified U (Z, T in the source) at 5,7,8,12,15,19,24,26 of strand 1 (MS of Bio-NNGmin: seven of eight coupled)) CCCGTGTTAGATAGTAAGTGCAATCTCGGCTTTCTGTCTCTTATACACATCTGACGCTGCCGACGA/TCGTCGGCAGCGTCAGATGTGTATAAGAGACAGTTTTTTTTTTTTTTTTTTTTTTTTTCAGGACAGGCTC

Measured: binding

OCC1(O)OC[C@@H](O)[C@@H](O)[C@@H]1O (stereo partly shown)
yes: all assays above
